# Results published in patent US20160270397A1, “Herbicidal Composition Comprising ACC Inhibitors” (BASF SE, priority 2013, published 2016).
# Read-outs that look alike come from different tables or passages of the source.
# Assays:
# [1] = tested on: AMARE; test: Greenhouse post-emergence treatment, herbicidal activity against AMARE; format: in vivo, Amaranthus retroflexus L.
# Method: (§1) The culture containers used were plastic pots containing loamy sand with approximately 2-3.0% of organic matter. The seeds of the test plants were sown separately for each species.
# (§2) For the post-emergence treatment, the test plants were grown to a plant height of from 3 to 15 cm, depending on the plant habit, and only then treated with the active compounds which had been suspended or emulsified in water. To this end, the test plants were either sown directly, and grown in the same containers, or they were first grown separately as seedlings and transplanted into the test containers a few days prior to treatment.
# (§3) Depending on the species, the plants were kept at 10-25° C. and 20-35° C., respectively. The test period extended over 1 to 4 weeks. During this time, the plants were tended and their response to the individual treatments was evaluated.
# (§4) Evaluation was carried out using a scale from 0 to 100. 100 means no emergence of the plants, or complete destruction of at least the above-ground parts, and 0 means no damage or normal course of growth.
# [2] = tested on: COMBE; test: Greenhouse post-emergence treatment, herbicidal activity against COMBE; format: in vivo, Commelina benghalensis
# Method: as §1, §2, §3, §4
# [3] = tested on: IPOHE; test: Greenhouse post-emergence treatment, herbicidal activity against IPOHE; format: in vivo, Ipomoea hederacea
# Method: as §1, §2, §3, §4
# [4] = tested on: LEFFA; test: Greenhouse post-emergence treatment, herbicidal activity against LEFFA; format: in vivo, Leptochloa fusca subsp. Fascicularis
# Method: as §1, §2, §3, §4
# [5] = tested on: BRADE; test: Greenhouse post-emergence treatment, herbicidal activity against BRADE; format: in vivo, Brachiaria deflexa
# Method: as §1, §2, §3, §4
# [6] = tested on: SETVI; test: Greenhouse post-emergence treatment, herbicidal activity against SETVI; format: in vivo, Setaria viridis L.
# Method: as §1, §2, §3, §4
# [7] = tested on: SEBEX; test: Greenhouse post-emergence treatment, herbicidal activity against SEBEX; format: in vivo, Sesbania exaltata
# Method: as §1, §2, §3, §4
# [8] = tested on: PHACA; test: Greenhouse post-emergence treatment, herbicidal activity against PHACA; format: in vivo, Phalaris canariensis L.
# Method: as §1, §2, §3, §4
structure (smiles),measurement,setting,value
"CCCC(=NOCC)C1=C(O)CC(C2CCCSC2)CC1=O (stereo not shown) [a1.19, cycloxydim]","herbicidal activity against AMARE, found","[1]; Example 2, a1.19 10 g/ha a.i.",0%
same,"herbicidal activity against AMARE, found","[1]; Example 6, a1.19 10 g/ha a.i.",0%
same,"herbicidal activity against COMBE, found",[2]; a1.19 10 g/ha a.i.,0%
same,"herbicidal activity against IPOHE, found","[3]; Example 1, a1.19 10 g/ha a.i.",10%
same,"herbicidal activity against IPOHE, found","[3]; Example 6, a1.19 10 g/ha a.i.",10%
same,"herbicidal activity against IPOHE, found",[3]; a1.19 5 g/ha a.i.,0%
same,pest or weed control at 5 g/ha,"[4]; Diplachne fusca, a1.19 5 g/ha a.i., read-out: herbicidal activity against LEFFA, found",50%
same,"herbicidal activity against BRADE, found",[5]; a1.19 10 g/ha a.i.,65%
"CC(C)N(C)S(=O)(=O)NC(=O)c1cc(-n2c(=O)cc(C(F)(F)F)n(C)c2=O)c(F)cc1Cl [b4.3, saflufenacil]",pest or weed control at 2.5 g/ha,"[4]; Diplachne fusca, Example 11, b4.3 2.5 g/ha a.i., read-out: herbicidal activity against LEFFA, found",65%
same,"herbicidal activity against LEFFA, found","[4]; Example 12, b4.3 2.5 g/ha a.i.",65%
"COc1cc(OC)nc(Oc2cccc(Oc3nc(OC)cc(OC)n3)c2C(=O)O)n1 [b2.13, bispyribac]","herbicidal activity against AMARE, found",[1]; b2.13 5 g/ha a.i.,90%
same,"herbicidal activity against IPOHE, found","[3]; Example 5, b2.13 5 g/ha a.i.",75%
same,"herbicidal activity against IPOHE, found","[3]; Example 6, b2.13 5 g/ha a.i.",75%
same,pest or weed control at 5 g/ha,"[4]; Diplachne fusca, Example 10, b2.13 5 g/ha a.i., read-out: herbicidal activity against LEFFA, found",65%
same,"herbicidal activity against LEFFA, found","[4]; Example 11, b2.13 5 g/ha a.i.",65%
"O=C(O)c1c(Cl)ccc2cc(Cl)cnc12 [b7.5, quinclorac]","herbicidal activity against AMARE, found",[1]; b7.5 180 g/ha a.i.,50%
same,"herbicidal activity against COMBE, found",[2]; b7.5 7.5 g/ha a.i.,0%
same,pest or weed control at 75 g/ha,"[4]; Diplachne fusca, Example 12, b7.5 75 g/ha a.i., read-out: herbicidal activity against LEFFA, found",65%
same,"herbicidal activity against LEFFA, found","[4]; Example 13, b7.5 75 g/ha a.i.",65%
same,"herbicidal activity against SETVI, found",[6]; b7.5 90 g/ha a.i.,65%
"CC1(C)CON(Cc2ccccc2Cl)C1=O [b5.1, clomazone]","herbicidal activity against COMBE, found",[2]; b5.1 75 g/ha a.i.,70%
same,"herbicidal activity against SETVI, found",[6]; b5.1 75 g/ha a.i.,15%
"C[C@@H](Oc1ccc(Oc2cnc3cc(Cl)ccc3n2)cc1)C(=O)O [a1.14, quizalofop-P]","herbicidal activity against AMARE, found",[1]; a1.14 7.5 g/ha a.i.,20%
same,"herbicidal activity against SEBEX, found",[7]; a1.14 15 g/ha a.i.,0%
same,"herbicidal activity against COMBE, found",[2]; a1.14 10 g/ha a.i.,0%
same,"herbicidal activity against COMBE, found",[2]; a1.14 15 g/ha a.i.,0%
same,"herbicidal activity against IPOHE, found","[3]; Example 3, a1.14 12 g/ha a.i.",0%
same,"herbicidal activity against IPOHE, found","[3]; Example 5, a1.14 12 g/ha a.i.",5%
same,"herbicidal activity against PHACA, found",[8]; a1.14 15 g/ha a.i.,65%
same,"herbicidal activity against LEFFA, found","[4]; Example 10, a1.14 10 g/ha a.i.",40%
same,"herbicidal activity against LEFFA, found","[4]; Example 11, a1.14 10 g/ha a.i.",40%
same,"herbicidal activity against LEFFA, found","[4]; Example 12, a1.14 10 g/ha a.i.",40%
same,"herbicidal activity against LEFFA, found","[4]; Example 13, a1.14 10 g/ha a.i.",40%
same,"herbicidal activity against LEFFA, found",[4]; a1.14 15 g/ha a.i.,65%
same,"herbicidal activity against SETVI, found",[6]; a1.14 7.5 g/ha a.i.,75%
same,"herbicidal activity against SETVI, found",[6]; a1.14 15 g/ha a.i.,85%
"COc1c(Cl)ccc(Cl)c1C(=O)O [b7.2, dicamba]",pest or weed control at 250 g/ha,"[4]; Diplachne fusca, b7.2 250 g/ha a.i., read-out: herbicidal activity against LEFFA, found",25%
"COc1cnc(OC)n2nc(NS(=O)(=O)c3c(OCC(F)F)cccc3C(F)(F)F)nc12 [b2.12, penoxsulam]","herbicidal activity against IPOHE, found","[3]; Example 3, b2.12 8 g/ha a.i.",80%
same,"herbicidal activity against IPOHE, found","[3]; Example 4, b2.12 8 g/ha a.i.",80%
same,pest or weed control at 8 g/ha,"[4]; Diplachne fusca, b2.12 8 g/ha a.i., read-out: herbicidal activity against LEFFA, found",0%
"CC(C)N1C(=O)c2ccccc2NS1(=O)=O [b3.1, bentazone]","herbicidal activity against COMBE, found",[2]; b3.1 250 g/ha a.i.,95%
same,pest or weed control at 250 g/ha,"[4]; Diplachne fusca, b3.1 250 g/ha a.i., read-out: herbicidal activity against LEFFA, found",10%
"COc1cc(OC)nc(NC(=O)NS(=O)(=O)c2c(-c3nnn(C)n3)cnn2C)n1 [b2.1, azimsulfuron]","herbicidal activity against COMBE, found",[2]; b2.1 5 g/ha a.i.,0%
same,"herbicidal activity against IPOHE, found",[3]; b2.1 10 g/ha a.i.,90%
"O=C(O)COc1nc(Cl)c(Cl)cc1Cl [b7.6, triclopyr]","herbicidal activity against SEBEX, found",[7]; b7.6 50 g/ha a.i.,50%
same,"herbicidal activity against PHACA, found",[8]; b7.6 50 g/ha a.i.,0%
same,pest or weed control at 50 g/ha,"[4]; Diplachne fusca, b7.6 50 g/ha a.i., read-out: herbicidal activity against LEFFA, found",20%
"COc1cc(OC)nc(NC(=O)NS(=O)(=O)Cc2ccccc2C(=O)O)n1 [b2.2, bensulfuron]","herbicidal activity against AMARE, found",[1]; b2.2 31 g/ha a.i.,80%
same,"herbicidal activity against BRADE, found",[5]; b2.2 31 g/ha a.i.,0%
